Results: US11187660B2, “Fluorescent probes for monitoring voltage by photo-induced electron transfer” (The Regents of the University of California, priority 2011, dated 2021)

Tested on: rat hippocampal neurons
Assay: Optical detection of evoked action potentials in cultured hippocampal neurons
Assay type: cell-based
Procedure: To assay VF2.4.Cl's utility for monitoring neuronal activity, hippocampal neurons isolated from rats neonates were loaded with 2 μM VF2.4.Cl for 15 minutes, washed twice and imaged. […] Neurons were patched, current clamped, and injected with a small pulse (250-400 pA, 1-5 ms) to induce action potential firing. By using a high speed EMCCD camera, capable of sampling small regions of interest (ROI) at rates of approximately 2 kHz, enabled single trial optical detection of action potentials. An action potential with a total voltage change of ˜130 mV was well resolved optically and gave a ΔF/F of 24% with a signal-to-noise ratio of 16. Smaller spikes were detectable as well, a 100 mV change gave a ΔF/F of 15% with an SNR of 15. The slightly diminished sensitivity in neurons (0.15% per mV in neurons vs 0.25% per mV in HEK cells) can be explained primarily by the heterogeneous nature of the preparation; overlapping, non-excitable membranes loaded with VF2.4.Cl contribute to a non-responsive fluorescent signal which dilutes the responsive fraction.
To assess whether VF probes can detect action potentials in single trials, we used cultured rat hippocampal neurons. […] We then injected current into a neuron under whole-cell patch-clamp mode to trigger single action potentials and used a high-speed, back-illuminated EMCCD camera to track fast optical signals from VF2.4.Cl, enabling us to resolve action potentials in neurons in single sweeps (FIG. 13B). The optical trace matched the physiology trace and gave about a 20% ΔF/F increase in fluorescence and a 16:1 signal-to-noise ratio (SNR) in a single trial.
HEK293 cells were cultured in DMEM (CellGrow) supplemented with 10% FBS, 1% penicillin/streptomycin (Invitrogen) and plated on glassbottom culture dishes (35 mm dish, 14 mm microwell with No. 0 coverglass) (MatTek Corporation). Hippocampal neurons were dissected from postnatal day 0 or 1 rat pups and plated on poly-D-lysine-coated glassbottom culture dishes. Neuronal recordings were made 14-28 days in culture.
Electrophysiological recordings of HEK293 cells and cultured neurons were performed with an Axopatch 200A or 200B amplifier (Molecular Devices) at room temperature. The signals were digitized with Digidata 1332A and recorded with pCLAMP 9 software (Molecular Devices) on a PC. Analysis of electrophysiological data was done with AxoGraph X (AxoGraphX), pCLAMP 9, and/or ClampFit (Molecular Devices). For most experiments the extracellular solution consisted of (in mM) 145 NaCl, 20 glucose, 10 HEPES, 3 KCl, 2 CaCl2, 1 MgCl2 (pH 7.35, 310 mOsm). The intracellular solution contained (in mM) 115 potassium gluconate, 10 BAPTA tetrapotassium salt, 10 HEPES, 5 NaCl, 10 KCl, 2 ATP disodium salt, 0.3 GTP trisodium salt (pH 7.25, 290 mOsm).
For voltage sensitivity measurements, regions of interest were drawn around clamped cells and the mean fluorescence measured in ImageJ or Slidebook. For HEK cells, background fluorescence was subtracted by measuring the fluorescence where no cells grew. For experiments in neurons, the background fluorescence was not subtracted. In all cases, ΔF/F was calculated by dividing the fluorescence signal by the average fluorescence for a baseline of 10-20 frames prior to stimulation.

CCCCN(CCCC)c1ccc(/C=C/c2ccc(/C=C/c3ccc(-c4c5cc(Cl)c(=O)cc-5oc5cc(O)c(Cl)cc45)c(S(=O)(=O)O)c3)cc2)cc1 [VF2.4.Cl, 5-(4-(4-(dibutylamino)styryl)styryl)-2-(2,7-dichloro-6-hydroxy-3-oxo-3H-xanthen-9-yl)benzenesulfonic acid]
SNR (100 mV change): 15
ΔF/F for smaller spike (100 mV change): 15%
signal-to-noise ratio (action potential ~130 mV, single trial): 16
sensitivity in neurons (rat hippocampal neurons): 0.15 % per mV
ΔF/F increase in fluorescence for evoked action potential (single trial, 2 μM, EMCCD 2 kHz): ~20%
ΔF/F for action potential (total voltage change ~130 mV, single trial, 2 μM): 24%
